Assay results: PubChem BioAssay (NCI)
“And” between values parts separate entries of the source, which are not always exact repeats. Equal values may be shown once.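 Five concentrations, 48 hours, 96-well plates. The concentration for 50% growth inhibition is given as GI50. The concentration for full growth arrest is given as TGI.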

Assays:
Assay in all cases: growth of human tumour cells (NCI), 48 h
NCI-H522 lung = tested on: NCI-H522 lung
SK-MEL-2 melanoma = tested on: SK-MEL-2 melanoma
HS 578T breast = tested on: HS 578T breast
TK-10 renal = tested on: TK-10 renal
MDA-MB-231 breast = tested on: MDA-MB-231 breast
SK-MEL-5 melanoma = tested on: SK-MEL-5 melanoma
HL-60(TB) leukemia = tested on: HL-60(TB) leukemia
OVCAR-5 ovarian = tested on: OVCAR-5 ovarian
SNB-75 CNS = tested on: SNB-75 CNS
A498 renal = tested on: A498 renal
RXF 393 renal = tested on: RXF 393 renal
K-562 leukemia = tested on: K-562 leukemia
OVCAR-3 ovarian = tested on: OVCAR-3 ovarian
SN12C renal = tested on: SN12C renal
SF-295 CNS = tested on: SF-295 CNS
HOP-62 NSCLC = tested on: HOP-62 NSCLC
UACC-62 melanoma = tested on: UACC-62 melanoma
SR leukemia = tested on: SR leukemia
SNB-19 CNS = tested on: SNB-19 CNS
HOP-92 NSCLC = tested on: HOP-92 NSCLC
NCI-H226 lung = tested on: NCI-H226 lung
PC-3 prostate = tested on: PC-3 prostate
MALME-3M melanoma = tested on: MALME-3M melanoma
LOX IMVI melanoma = tested on: LOX IMVI melanoma
HCT-116 colon = tested on: HCT-116 colon
IGROV1 ovarian = tested on: IGROV1 ovarian
NCI-H460 lung = tested on: NCI-H460 lung
A549 NSCLC = tested on: A549 NSCLC
SF-268 CNS = tested on: SF-268 CNS
COLO 205 colon = tested on: COLO 205 colon
ACHN renal = tested on: ACHN renal
HCC-2998 colon = tested on: HCC-2998 colon
MCF7 breast = tested on: MCF7 breast
NCI/ADR-RES ovarian = tested on: NCI/ADR-RES ovarian
M14 melanoma = tested on: M14 melanoma
NCI-H23 lung = tested on: NCI-H23 lung
SK-OV-3 ovarian = tested on: SK-OV-3 ovarian
SW-620 colon = tested on: SW-620 colon
BT-549 breast = tested on: BT-549 breast
RPMI-8226 leukemia = tested on: RPMI-8226 leukemia
DU-145 prostate = tested on: DU-145 prostate
MDA-MB-435 = tested on: MDA-MB-435
KM12 colon = tested on: KM12 colon
UACC-257 melanoma = tested on: UACC-257 melanoma
OVCAR-4 ovarian = tested on: OVCAR-4 ovarian
HT29 colon = tested on: HT29 colon
UO-31 renal = tested on: UO-31 renal
EKVX NSCLC = tested on: EKVX NSCLC
MOLT-4 leukemia = tested on: MOLT-4 leukemia
HCT-15 colon = tested on: HCT-15 colon
OVCAR-8 ovarian = tested on: OVCAR-8 ovarian
CCRF-CEM leukemia = tested on: CCRF-CEM leukemia
T-47D breast = tested on: T-47D breast
U251 CNS = tested on: U251 CNS
786-0 renal = tested on: 786-0 renal
SK-MEL-28 melanoma = tested on: SK-MEL-28 melanoma
CAKI-1 renal = tested on: CAKI-1 renal
SF-539 CNS = tested on: SF-539 CNS

Compound: CC(=O)O[C@H]1C[C@H](O[C@H]2[C@@H](O)C[C@H](O[C@H]3[C@@H](O)C[C@H](O[C@H]4CC[C@@]5(C)C(CCC6C5C[C@@H](O)[C@]5(C)[C@@H](C7=CC(=O)OC7)CC[C@]65O)C4)O[C@@H]3C)O[C@@H]2C)O[C@H](C)[C@H]1O[C@@H]1O[C@H](CO)[C@@H](O)[C@H](O)[C@H]1O (some centres undefined)
- GI50 (NCI-H522 lung): 10.7 nM and 37.5 nM
- TGI (NCI-H522 lung): 37.6 nM and 126 nM
- GI50 (SK-MEL-2 melanoma): 315 nM
- TGI (SK-MEL-2 melanoma): 1000 nM
- TGI (HS 578T breast): 1640 nM
- GI50 (TK-10 renal): 14.6 nM and 145 nM
- GI50 (MDA-MB-231 breast): 238 nM and 234 nM
- TGI (MDA-MB-231 breast): 1350 nM and 652 nM
- GI50 (SK-MEL-5 melanoma): 18.7 nM and 109 nM
- TGI (SK-MEL-5 melanoma): 69.9 nM and 233 nM
- GI50 (HL-60(TB) leukemia): 11.2 nM
- TGI (HL-60(TB) leukemia): 28.3 nM
- GI50 (OVCAR-5 ovarian): 65.8 nM and 175 nM
- TGI (OVCAR-5 ovarian): 140 nM and 327 nM
- GI50 (SNB-75 CNS): 57.7 nM and 138 nM
- TGI (SNB-75 CNS): 147 nM and 304 nM
- GI50 (A498 renal): 78 nM
- TGI (A498 renal): 412 nM
- GI50 (RXF 393 renal): 15.8 nM and 63.6 nM
- TGI (RXF 393 renal): 63.6 nM and 385 nM
- GI50 (K-562 leukemia): 27.2 nM
- TGI (K-562 leukemia): 204 nM
- GI50 (OVCAR-3 ovarian): 18.6 nM and 93.2 nM
- TGI (OVCAR-3 ovarian): 65.6 nM and 218 nM
- GI50 (SN12C renal): 20 nM and 47.1 nM
- TGI (SN12C renal): 581 nM and 413 nM
- GI50 (SF-295 CNS): 26.8 nM and 73.7 nM
- TGI (SF-295 CNS): 286 nM and 581 nM
- GI50 (HOP-62 NSCLC): 19.6 nM and 65.1 nM
- TGI (HOP-62 NSCLC): 69.1 nM and 189 nM
- GI50 (UACC-62 melanoma): 93.8 nM and 173 nM
- TGI (UACC-62 melanoma): 196 nM and 343 nM
- GI50 (SR leukemia): 15.1 nM and 44 nM
- TGI (SR leukemia): 97.7 nM and 281 nM
- GI50 (SNB-19 CNS): 69.2 nM and 212 nM
- TGI (SNB-19 CNS): 256 nM and 557 nM
- GI50 (HOP-92 NSCLC): 78.1 nM and 158 nM
- TGI (HOP-92 NSCLC): 243 nM and 612 nM
- GI50 (NCI-H226 lung): 174 nM
- TGI (NCI-H226 lung): 314 nM
- GI50 (PC-3 prostate): 28.7 nM and 103 nM
- TGI (PC-3 prostate): 225 nM and 590 nM
- GI50 (MALME-3M melanoma): 21.7 nM and 183 nM
- TGI (MALME-3M melanoma): 130 nM and 469 nM
- GI50 (LOX IMVI melanoma): 26.1 nM and 81.8 nM
- TGI (LOX IMVI melanoma): 93.7 nM and 238 nM
- GI50 (HCT-116 colon): 18.2 nM and 39.4 nM
- TGI (HCT-116 colon): 64 nM and 134 nM
- GI50 (IGROV1 ovarian): 68.5 nM and 229 nM
- TGI (IGROV1 ovarian): 1370 nM and 1310 nM
- GI50 (NCI-H460 lung): 16.5 nM and 34.5 nM
- TGI (NCI-H460 lung): 55.7 nM and 135 nM
- GI50 (A549 NSCLC): 9.03 nM and 31.9 nM
- TGI (A549 NSCLC): 16.5 nM and 108 nM
- GI50 (SF-268 CNS): 18.5 nM and 51.1 nM
- TGI (SF-268 CNS): 73.7 nM and 165 nM
- GI50 (COLO 205 colon): 284 nM
- TGI (COLO 205 colon): 676 nM
- GI50 (ACHN renal): 20.4 nM and 44 nM
- TGI (ACHN renal): 69 nM and 179 nM
- GI50 (HCC-2998 colon): 73 nM and 242 nM
- TGI (HCC-2998 colon): 210 nM and 678 nM
- GI50 (MCF7 breast): 24.8 nM and 57.5 nM
- TGI (MCF7 breast): 189 nM and 694 nM
- GI50 (NCI/ADR-RES ovarian): 23.3 nM and 76.4 nM
- TGI (NCI/ADR-RES ovarian): 86.1 nM and 250 nM
- GI50 (M14 melanoma): 103 nM and 212 nM
- TGI (M14 melanoma): 244 nM and 399 nM
- GI50 (NCI-H23 lung): 15.1 nM and 46.8 nM
- TGI (NCI-H23 lung): 58.6 nM and 206 nM
- GI50 (SK-OV-3 ovarian): 28.7 nM and 160 nM
- TGI (SK-OV-3 ovarian): 99.6 nM and 314 nM
- GI50 (SW-620 colon): 23.8 nM and 63.1 nM
- TGI (SW-620 colon): 86 nM and 302 nM
- GI50 (BT-549 breast): 39.4 nM
- TGI (BT-549 breast): 129 nM
- GI50 (RPMI-8226 leukemia): 68.2 nM and 200 nM
- TGI (RPMI-8226 leukemia): 315 nM and 955 nM
- GI50 (DU-145 prostate): 13.8 nM and 110 nM
- TGI (DU-145 prostate): 38.7 nM and 232 nM
- GI50 (MDA-MB-435): 110 nM and 275 nM
- TGI (MDA-MB-435): 307 nM and 893 nM
- GI50 (KM12 colon): 31.9 nM and 161 nM
- TGI (KM12 colon): 140 nM and 382 nM
- GI50 (UACC-257 melanoma): 85.2 nM and 347 nM
- TGI (UACC-257 melanoma): 162 nM and 1180 nM
- GI50 (OVCAR-4 ovarian): 122 nM
- TGI (OVCAR-4 ovarian): 442 nM
- GI50 (HT29 colon): 24.6 nM and 120 nM
- TGI (HT29 colon): 86.8 nM and 395 nM
- GI50 (UO-31 renal): 64.8 nM and 179 nM
- TGI (UO-31 renal): 237 nM and 343 nM
- GI50 (EKVX NSCLC): 22.4 nM and 56.6 nM
- TGI (EKVX NSCLC): 83.6 nM and 202 nM
- GI50 (MOLT-4 leukemia): 11.7 nM and 25.7 nM
- TGI (MOLT-4 leukemia): 28.8 nM and 65.6 nM
- GI50 (HCT-15 colon): 58.7 nM and 200 nM
- TGI (HCT-15 colon): 174 nM and 465 nM
- GI50 (OVCAR-8 ovarian): 38.5 nM and 159 nM
- TGI (OVCAR-8 ovarian): 104 nM and 385 nM
- GI50 (CCRF-CEM leukemia): 17.3 nM and 33.3 nM
- TGI (CCRF-CEM leukemia): 49.7 nM and 180 nM
- GI50 (T-47D breast): 22.8 nM and 166 nM
- TGI (T-47D breast): 167 nM and 576 nM
- GI50 (U251 CNS): 29.8 nM and 113 nM
- TGI (U251 CNS): 91 nM and 234 nM
- GI50 (786-0 renal): 25.1 nM and 105 nM
- TGI (786-0 renal): 89.4 nM and 223 nM
- GI50 (SK-MEL-28 melanoma): 115 nM and 215 nM
- TGI (SK-MEL-28 melanoma): 237 nM and 496 nM
- GI50 (CAKI-1 renal): 29.4 nM and 81.3 nM
- TGI (CAKI-1 renal): 183 nM and 345 nM
- GI50 (SF-539 CNS): 21.7 nM and 105 nM
- TGI (SF-539 CNS): 78.3 nM and 225 nM
